Data from US5719179A, “Compound GEX1” (Kyowa Hakko Kogyo Co., Ltd., priority 1995, dated 1998).
Values after ≈ are worked out from the molar mass of the structure shown. Like-named read-outs stand apart in the source and are kept apart here.

How the values were obtained:
[1] = Solubility (physicochemical data)
[2] = test system: Human Epidermic Cancer A431 Cells; experiment: Growth inhibition against Human Epidermic Cancer A431 cells (MTT); type: cell-based; conditions: read-out: 50% growth inhibitory concentration (IC50), A431
Description: Growth Inhibition against Human Epidermic Cancer A431 Cells
Human Epidermic Cancer A431 cells were put into a 96-well microtiter plate (Nunc #167008) at 3×10^3 cells/well, and cultured in a 5% CO2 incubator at 37° C. for 24 hours. Each of 3 μg/ml GEX1 compounds was stepwise diluted. Each dilution was put into each well in an amount of 50 μl. The final concentration of the resulting suspension, in the wells of the plate was controlled to be at most 1 μg/ml. The cells were further cultured in the 5% CO2 incubator at 37° C. for 72 hours. Five hours before the termination of the incubation, MTT [3-(4,5-dimethylthiazo-2-yl)-2,5-diphenyltetrazolium bromide, Sigma Co., St. Louis, Mo.] dissolved in a medium as used for the culturing was put into each well in an amount of 50 μl, the final concentration of MTT added in each well being 1 mg/ml. After the culturing, DMSO was added to each well in an amount of 150 μl, followed by vigorous stirring with a plate mixer to completely dissolve crystals of MTT-formazan. The absorbance at 550 nm was measured by using a microplate reader MTP-32 (Corona Electric Co., Ltd.). and the cell growth inhibiting activity of each GEX1 compound tested was expressed in terms of 50% growth inhibitory concentration (IC50).

[3] = JP,A, 6-22770; cited from earlier work
[4] = A-431, A431 cells, 72 hours, MTT, absorbance at 550 nm

SMILES	Solubility in chloroform [1]	Solubility in dimethylsulfoxide (DMSO) [1]	Solubility in hexane [1]	Solubility in methanol [1]	IC50 [2, 4]	IC50 ([2]; A-431, 72 h)	Solubility in water ([1]; water)	antitumor activity [3]
COC(C(C)O)C(C)C1OC1(C)CC(C)C=CC=C(C)C1OC(CC(=O)O)CC(O)C1C (centres unmarked) [GEX1Q1]	hardly soluble	Soluble	hardly soluble	Soluble	0.42 µg/mL (≈ 0.924 µM)	–	–	–
COC(C(C)O)C(C)C1OC1(C)CC(C)(O)C=CC=C(C)C1OC(CC(=O)O)CCC1C (centres unmarked) [GEX1Q2]	hardly soluble	Soluble	hardly soluble	Soluble	–	0.23 µg/mL (≈ 0.506 µM)	–	–
COC(C(C)O)C(C)C1OC1(C)CC(C)C=CC=C(C)C1OC(CC(=O)OC2OC(C(=O)O)C(O)C(O)C2O)CCC1C (centres unmarked) [GEX1Q3]	hardly soluble	Soluble	hardly soluble	Soluble	–	0.02 µg/mL (≈ 0.0325 µM)	Soluble	–
COC(C(C)O)C(C)C1OC1(C)CC(C)C=CC=C(CO)C1OC(CC(=O)O)CCC1C (centres unmarked) [GEX1Q4]	hardly soluble	Soluble	hardly soluble	Soluble	–	0.45 µg/mL (≈ 0.99 µM)	–	–
CC(=CC=CC(C)CC1(C)OC1C(C)C(O)C(C)O)C1OC(CC(=O)O)CCC1C (centres unmarked) [GEX1Q5]	–	Soluble	hardly soluble	Soluble	0.0053 µg/mL (≈ 0.0125 µM)	–	–	–
COC(C(C)O)C(C)C1OC1(C)CC(C)C=CC=C(C)C1OC(CC(=O)O)CCC1C (centres unmarked) [TAN-1609]	–	–	–	–	–	–	–	has antitumor activity
